# Literature values in US20080175905A1, “ESTROGEN/SERM AND ESTROGEN/PROGESTIN BI-LAYER TABLETS” (Wyeth, priority 2006, published 2008).
# Assays:
# [1] = tested on: MCF-7 cell line (human breast cancer cell line); details: MCF-7 human breast cancer cell line
# uterine response = details: preclinical models of uterine stimulation
# [2] = tested on: ovariectomized rat model of osteopenia
smiles,measurement,setting,value
"Cc1c(-c2ccc(O)cc2)n(Cc2ccc(OCCN3CCCCCC3)cc2)c2ccc(O)cc12 [bazedoxifene acetate, 1-[4-(2-azepan-1-yl-ethoxy)-benzyl]-2-(4-hydroxy-phenyl)-3-methyl-1H-indol-5-ol acetic acid]",estrogen antagonist behaviour in MCF-7 cell line,[1],behaves as an estrogen antagonist
same,stimulation of uterine response,uterine response,little or no stimulation of uterine response
same,preventing bone loss,[2],estrogen agonist-like effect
same,reducing cholesterol,[2],estrogen agonist-like effect
